These results are taken from patent US12691092B2, “Method for reducing cutaneous skin scarring by pre-emptive priming and compounds and compositions for its implementation” (SOS SCIENCE OF SKIN LTD, priority 2020, dated 2026).

In experiment [1] the test system is langerin. The experiment is described as follows: Langerin immunohistochemical marker in scar biopsies. To be noted: week 4, group-1 only (7-day pre-injury priming), p=0.02. Format: in vivo, human. As to the method:
(§1) A double-blind randomized placebo-controlled trial was conducted using a temporal punch-biopsy model. The punch biopsy and topical application methodology used in the study is illustrated in FIG. 1, namely showing pre-injury pre-emptive priming (7-days), pre-injury pre-emptive priming (3-days), day of injury (immediate application on day 0), post-injury (delayed 2 weeks post injury) including biopsy time points and time of topical applications. Each group applied both placebo and topical formulations twice daily for the duration of the study until week 8, with only the starting time point differing between groups Participants were split into 4 groups (n=10 in each group) in order to compare different modes (timings) of commencement of the topical application: • Group-1: Pre-emptive Priming (7-days): pre-injury • Group-2: Pre-emptive Priming (3-days): pre-injury • Group-3: Immediate (0-day): day-of-injury • Group-4: Delayed (14-days): post-injury Clinical quantitative devices were used to objectively monitor cutaneous healing at weekly intervals and punch biopsies were performed on day 0 (uninjured skin) and at weeks 4 and 8 for protein and gene expression analyses. […] Excisional skin biopsies in upper arms were evaluated weekly with multiple quantitative devices over an 8-week period. […]

Experiment [2] deals with human skin scarring model. The experiment is described as follows: Blood flow by full-field laser perfusion imaging (FLPI). Format: in vivo. As to the method: A double-blind randomized placebo-controlled trial was conducted using a temporal punch-biopsy model. The punch biopsy and topical application methodology used in the study is illustrated in FIG. 1, namely showing pre-injury pre-emptive priming (7-days), pre-injury pre-emptive priming (3-days), day of injury (immediate application on day 0), post-injury (delayed 2 weeks post injury) including biopsy time points and time of topical applications. Each group applied both placebo and topical formulations twice daily for the duration of the study until week 8, with only the starting time point differing between groups Participants were split into 4 groups (n=10 in each group) in order to compare different modes (timings) of commencement of the topical application: • Group-1: Pre-emptive Priming (7-days): pre-injury • Group-2: Pre-emptive Priming (3-days): pre-injury • Group-3: Immediate (0-day): day-of-injury • Group-4: Delayed (14-days): post-injury Clinical quantitative devices were used to objectively monitor cutaneous healing at weekly intervals and punch biopsies were performed on day 0 (uninjured skin) and at weeks 4 and 8 for protein and gene expression analyses. In the trial, topical EGCG and a placebo topical were applied twice daily for the duration of the trial until week 8 with only the starting time points differing between groups. […]

The subject of experiment [3] is CD31. Nature of the experiment: QRT-PCR for CD31. Format: in vivo, human. To be noted: week 4, all groups. Here is the method: as §1
In experiment [4] the test system is Nuclear factor erythroid 2-related factor 2 (NRF2). The experiment is described as follows: NRF2 immunohistochemical marker (anti-oxidant effect). The following applies: scar samples, weeks 4 and 8. Format: in vivo, human. Here is the method: as §1

As to `O=C(OC1Cc2c(O)cc(O)cc2OC1c1cc(O)c(O)c(O)c1)c1cc(O)c(O)c(O)c1` (single isomer, unassigned; (-)) [EGCG, (-)-epigallocatechin-3-gallate], in experiment [1], the “langerin reduction in EGCG-treated samples compared to placebo” value amounted to 13%. For the same compound, the “FLPI blood flow, EGCG arms compared to placebo arms” value in experiment [2] (group-1 weeks 1 and 8, group-2 weeks 3, 7, 8, group-3 weeks 1-3, 6-8, group-4 weeks 3-8, p<0.01) was “significant reduction”. Also, the “FLPI blood flow, between group comparison, groups-1 and 3 vs group-4” value in experiment [2] (week 1, p<0.001, p=0.002) is given as “reduced blood flow more than group-4”. The “QRT-PCR CD31, EGCG-treated samples compared to placebo” value in experiment [3] is on record as “significant down regulation”. Moreover, the “NRF2 amounts, EGCG samples compared to placebo” value in experiment [4] is “slightly higher amounts of NRF2 compared to placebo samples, although not significantly”.
